Laboratory results from patent publication US7635686B2, “Therapeutically useful triethyleneglycol cholesteryl oligonucleotides” (Bioniche Life Sciences, Inc., priority 2001, dated 2009).
{TEG-Chol} = cholesteryl attached through a triethyleneglycol (TEG) spacer, added as cholesteryl-TEG phosphoramidite

Key:
[1] = tested on: MEG-01 cells; assay: Apoptosis by phosphatidylserine redistribution (FITC-annexin V flow cytometry) in MEG-01 cells; type: cell-based, human; conditions: 48 hours; for Percentage of positive cells for phosphatidylserine (cells in apoptosis) in MEG-01 cells: untreated cells 12%; for Induction of apoptosis in MEG-01 cells (in words): translocation of phosphatidylserine, up to 53.0 μM
Procedure: Redistribution of plasma membrane phosphatidylserine is a characteristic of cells undergoing apoptosis (Martin et al., J. Exp. Med., 182:1545, 1995). The redistribution of phosphatidylserine in the plasma membrane during apoptosis was measured by flow cytometry using FITC (fluorescein isothiocyanate)-conjugated annexin V (BD Pharmingen, San Diego, Calif.). MEG-01 cells, a human chronic myelogeneous leukemia cell line positive for the Philadelphia chromosome and having a BCR-ABL gene fusion, were incubated at 2.5×10^5 cells/ml for 48 hours with 5.3, 26.5 and 53.0 μM final concentrations of SEQ ID NO:1, SEQ ID NO:2, SEQ ID NO:5, SEQ ID NO:6 and cholesteryl-TEG phosphoramidite molecule. The percentage of cells in apoptosis after exposure to the SEQ ID NOs:1, 2, 5, 6, or cholesteryl-TEG phosphoramidite treatment is reported in Table 2. The percentage of apoptosis in untreated MEG-01 cells was 12%.

[2] = tested on: HIG-82 cells; assay: HIG-82 synovial cell proliferation (MTT reduction); type: cell-based, rabbit; conditions: 53 μM, 48 hours
Procedure: Adherent HIG-82 cells, a synovial cell line, were incubated at 10×10^5 cells/ml for 48 hours with 53 μM (final concentration) of SEQ ID NO:2, SEQ ID NO:3, SEQ ID NO:4, SEQ ID NO:6, SEQ ID NO:7, or SEQ ID NO:8. Cellular proliferation was measured using dimethylthiazol-diphenyl-tetrazolium (MTT) reduction (Mosman et al., J. Immunol. Methods 65:55, 1983). MTT was measured at a wavelength of 570 nm using a multiple spectrophotometer reader (ELX800, Bio-TEK, Instruments Inc., Winooski, Vt.). The percentage of inhibition, calculated as […]

[3] = tested on: HIG-82 cells; assay: Apoptosis by nuclear DNA fragmentation (TUNEL, flow cytometry) in HIG-82 cells; type: cell-based, rabbit; conditions: 53 μM; for Percentage of cells containing DNA fragmentation (cells in apoptosis) in HIG-82 cells: 48 hours, TUNEL; for Induction of apoptosis in HIG-82 cells (in words): fragmented nuclear DNA
Procedure: Adherent HIG-82 cells were incubated at 1.0×10^5 cells/ml for 48 hours with 53 μM final concentration of SEQ ID NO:1, SEQ ID NO:2, SEQ ID NO:5 or SEQ ID NO:6. Since phosphatidylserine/annexin V detection of apoptosis was not reliable after adherent cell harvesting techniques, such as trypsinization (van Engeland, Cytometry, 31:1, 1998), apoptosis in HIG-82 cells was evaluated using flow cytometry by the detection of fragmented DNA by terminal deoxynucleotidyl transferase enzyme-mediated bromodeoxyuridine triphosphate-biotin nick end-labeling (TUNEL) using a commercial assay (APO-BRDU™ kit; BD Pharmingen). The percentage of cells containing nuclear DNA fragmentation was determined. After 24 hours, untreated HIG-82 cells were essentially negative for nuclear DNA fragmentation.

[4] = tested on: MEG-01 cells; assay: Cell cycle stage in MEG-01 cells (propidium iodide flow cytometry); type: cell-based, human; conditions: 24 h
Procedure: To determine a cell cycle stage, various assays and procedures known to one skilled in the art may be employed. One such procedure uses a CYCLETEST™ PLUS DNA commercial kit (Becton Dickinson, Franklin Lakes, N.J.). Briefly, nuclei from cells are obtained by dissolving the cell membrane in a nonionic detergent, eliminating the cell cytoskeleton and nuclear proteins with trypsin, digesting the cellular RNA with RNase, and stabilizing the nuclear chromatin with spermine. Propidium iodide is added to the cell nuclei and their fluorescence was analyzed in a flow cytometer equipped with electronic doublet discrimination capability (FACSCalibur, Becton Dickinson, Franklin Lakes, N.J.). Accumulation of cells in G0/G1, early S (SE), mid S (SM), late S (SL) or G2/M phases of the cell cycle may be analyzed using MODFIT LT software (Verity Software House Inc., Topsham, Mass.), or other appropriate software.
Exponentially growing MEG-01 cells (2×10^5 cells/ml) were incubated for 24 h with 0 μM (control), 53 μM of SEQ ID NO:2 or 53 μM of SEQ ID NO:6. The cells were collected, centrifuged, and cell cycle stage was determined.

[5] = tested on: MEG-01 cells; assay: MEG-01 cells inoculated subcutaneously in athymic nude mice; type: in vivo; conditions: 1, 10, 100 mg/kg, after 4 weeks of treatment; versus saline and unconjugated sequences; dose-dependent
Procedure: MEG-01 cells are inoculated subcutaneously into athymic nude mice as previously described (Takeo et al., Leukemia 7:1286, 1993). The mice are divided into 13 groups of 10 mice. On day 0, group 1 mice receive saline, group 2 mice receive 1 mg/kg SEQ ID NO:1, group 3 mice receive 10 mg/kg SEQ ID NO:1, group 4 mice receive 100 mg/kg SEQ ID NO:1, group 5 mice receive 1 mg/kg SEQ ID NO:2, group 6 mice receive 10 mg/kg SEQ ID NO:2, group 7 mice receive 100 mg/kg SEQ ID NO:2, group 8 mice receive 1 mg/kg SEQ ID NO:5, group 9 mice receive 10 mg/kg SEQ ID NO:5, group 10 mice receive 100 mg/kg SEQ ID NO:5, group 11 mice receive 1 mg/kg SEQ ID NO:6, group 12 mice receive 10 mg/kg SEQ ID NO:6 and group 13 mice receive 100 mg/kg SEQ ID NO:6 After 4 weeks of treatment, the mice are sacrificed and tumor mass is determined.

[6] = tested on: Streptococcal cell wall-induced arthritis; assay: Streptococcal cell wall-induced arthritis in rats; type: in vivo, LEW/N rats; conditions: 1, 10, 100 mg/kg with SCW, monitored daily for two weeks; versus SCW alone and unconjugated sequences; dose-dependent
Procedure: Streptococcal cell wall-induced arthritis in LEW/N rats resembles a localized neoplasm consisting of, in part, of a proliferative and invasive population of fibroblast-like synovial cells (Yocum et al., Am. J. Pathol. 132:38, 1988). The arthritis is induced in LEW/N rats by intra-articular injection of streptocococcal cell wall (SCW) from group A Streptococcus pyogenes. The rats are divided into 13 groups of 10 rats. On day 0, group 1 rats receive SCW, group 2 rats receive SCW+1 mg/kg SEQ ID NO:1, group 3 rats receive SCW+10 mg/kg SEQ ID NO:1, group 4 rats receive SCW+100 mg/kg SEQ ID NO:1, group 5 rats receive SCW+1 mg/kg SEQ ID NO:2, group 6 rats receive SCW+10 mg/kg SEQ ID NO:2, group 7 rats receive SCW+100 mg/kg SEQ ID NO:2, group 8 rats receive SCW+1 mg/kg SEQ ID NO:5, group 9 rats receive SCW+10 mg/kg SEQ ID NO:5, group 10 rats receive SCW+100 mg/kg SEQ ID NO:5, group 11 rats receive SCW+1 mg/kg SEQ ID NO:6, group 12 rats receive SCW+10 mg/kg SEQ ID NO:6, group 13 rats receive SCW+[…]. The joint inflammation is monitored daily for two weeks.

[7] = tested on: MCF-7 cells; assay: MATRIGEL outgrowth after 1 hr pre-incubation, MCF-7; type: cell-based, human; conditions: MCF-7, 53 μM pre-incubation 1 hr, 3 days on MATRIGEL, FIG. 1
Procedure: (§1) Various in vitro and in vivo assays may be used to evaluate the influence of the extracellular microenvironment on behavior of normal cells and tumor cells. Such assays may employ MATRIGEL® (Becton Dickinson, Franklin Lakes, N.J.), which is a solubilized basement membrane preparation extracted from the Engelbreth-Holm-Swarm murine sarcoma.
(§2) MCF-7, MDA-MB-231 (MDA-231), Hs578T and Mpanc-96 cells were cultured separately in regular culture medium, trypsinized, and counted. 100×10^3 of MDA-231 cells, 100×10^3 of Hs578T cells, 150×10^3 of MCF-7 cells and 150×10^3 of Mpanc-96 cells were separately pre-incubated for 1 hr at 37° C. in a final concentration of 53 μM of SEQ ID NO:1, 53 μM of SEQ ID NO:5 or RCM, and plated on top of MATRIGEL®-coated plates (MATRIGEL® Basement membrane matrix coated cellware 24-well plate,) for 3 days. Plates were fixed with 10% formalin. Digital photographs of the cells in the 24-well plates were taken using a Nikon Coolpix 990 digital camera (Nikon Corporation, Tokyo, Japan) connected to a Nikon inverted microscope model TMS.

[8] = tested on: MDA-MB-231 (MDA-231) cells; assay: MATRIGEL outgrowth after 1 hr pre-incubation, MDA-231; type: cell-based, human; conditions: MDA-231, 53 μM pre-incubation 1 hr, 3 days on MATRIGEL, FIG. 1 and FIG. 2
Procedure: as §1, §2
(§3) MDA-MB-231 (MDA-231) and Hs578T were cultured in regular culture medium, trypsinized and counted. 100×10^3 of MDA-MB-231 cells or 100×10^3 of Hs578T cells, were separately pre-incubated for 1 hr at 37° C. in a final concentration of 53 μM of SEQ ID NO:4, 53 μM of SEQ ID NO:8 or RCM and plated on MATRIGEL®-coated plates for 3 days. Plates were fixed with 10% formalin. Digital photographs of the cells in the 24-well plates were taken using a Nikon Coolpix 990 digital camera (Nikon Corporation, Tokyo, Japan) connected to a Nikon inverted microscope model TMS.

[9] = tested on: Hs578T cells; assay: MATRIGEL outgrowth after 1 hr pre-incubation, Hs578T; type: cell-based, human; conditions: 53 μM pre-incubation 1 hr, 3 days on MATRIGEL, FIG. 1 and FIG. 2
Procedure: as §1, §2, §3

[10] = tested on: Mpanc-96 cells; assay: MATRIGEL outgrowth after 1 hr pre-incubation, Mpanc-96; type: cell-based, human; conditions: Mpanc-96, 53 μM pre-incubation 1 hr, 3 days on MATRIGEL, FIG. 1
Procedure: as §1, §2

[11] = tested on: MDA-MB-231 cells; assay: Release of nuclear mitotic apparatus protein (NuMA) by MDA-MB-231 cells (ELISA); type: cell-based, human; conditions: MDA-MB-231 monolayers, 53 μM, 72 hrs; percentage increase
Procedure: MDA-MB-231 cells were cultured as monolayers in respective control media, with 53 μM final concentration of SEQ ID NO:1 or 53 μM final concentration of SEQ ID NO:5 for 72 hrs. The release of nuclear mitotic apparatus protein (NuMA) was used as a measure of apoptosis. NuMA was determined using a commercial (ELISA kit (Oncogene, Cambridge, Mass.) following the manufacturer's protocol. Results are shown in Table 10 and are expressed as the percentage increase in NuMA release compared to respective controls based on optical density measurements.

Row | Substance | Percentage of positive cells for phosphatidylserine (cells in apoptosis) in MEG-01 cells ([1]; 5.3 μM) | Percentage of positive cells for phosphatidylserine (cells in apoptosis) in MEG-01 cells ([1]; 26.5 μM) | Percentage of positive cells for phosphatidylserine (cells in apoptosis) in MEG-01 cells ([1]; 53.0 μM) | Induction of apoptosis in MEG-01 cells (in words) [1] | Inhibition of proliferation of synovial HIG-82 cells (in words) [2] | Inhibition of HIG-82 cell proliferation, inhibition (%) ([2]; MTT) | Percentage of cells containing DNA fragmentation (cells in apoptosis) in HIG-82 cells [3] | Induction of apoptosis in HIG-82 cells (in words) [3] | Induction of cell cycle arrest in MEG-01 cells (in words) ([4]; 53 μM) | % of cells in phase SM ([4]; MEG-01, 53 μM, untreated 10.8) | % of cells in phase SL + G2/M ([4]; MEG-01, 53 μM, untreated 17.8) | % of cells in phase G0/G1 + SE ([4]; MEG-01, 53 μM, untreated 71.4) | Tumor mass [5] | Joint inflammation [6] | Formation of 3-dimensional structures / cell morphology on MATRIGEL [7] | Formation of 3-dimensional structures / cell morphology on MATRIGEL [8] | Formation of 3-dimensional structures / cell morphology on MATRIGEL [9] | Formation of 3-dimensional structures / cell morphology on MATRIGEL [10] | NuMA release compared to controls (%) [11]
1 | 5′ OH-GGGAGG(TEG-cholesteryl) 3′ (3' {TEG-Chol}, sugars by position and backbone not given here) [SEQ ID NO:6, 5′-OH, 3′-TEG cholesteryl synthetic oligonucleotide] | 13% | 22% | 39% | capacity to induce apoptosis | capacity to inhibit the cellular proliferation | 75% | 18% | capacity to induce apoptosis | capacity to induce cell cycle arrest at the SL+G2/M phase | 6.5% | 41.9% | 51.6% | less tumor mass | less inflammation |  |  |  |  | 
2 | 5′ OH-GGGTGG(TEG-cholesteryl) 3′ [SEQ ID NO:5] | 12% | 27% | 42% | capacity to induce apoptosis |  |  | 17% | capacity to induce apoptosis |  |  |  |  | less tumor mass | less inflammation | prevented the formation of 3-dimensional structures | prevented the formation of 3-dimensional structures | prevented the formation of 3-dimensional structures | prevented the formation of 3-dimensional structures | 
3 | 5′ OH-GGGTGG-OH 3′ [SEQ ID NO:1] | 12% | 12% | 12% | inactive |  |  | 1% | inactive |  |  |  |  |  |  | did not change cell morphology | did not change cell morphology | did not change cell morphology | did not change cell morphology | +5%
